Test results taken from PubChem BioAssay AID1996.
≈ marks a conversion by molar mass, not a printed value.

Settings: buffer; pH 7.4; 200.0 µM

Structure (SMILES) | solubility kinetic [µg/mL]
CCOC(=O)Cc1c(C)nc(Cc2ccc(OC(C)C)cc2)[nH]c1=O | > 51.7
Cc1ccc2c(c1)C(c1ccccc1)=NCC(=O)N2 | > 37.5
N#Cc1ccc(COc2cccnc2[N+](=O)[O-])cc1 | 6.3 (≈ 24.7 µM)
CN(Cc1ccc(F)cc1)C(=O)COc1ccc2ccccc2c1 | < 0.7
CC(C)C(=O)NCC(c1ccc2c(c1)OCO2)N1CCOCC1 (stereo not given) | > 48.1
CCOC(=O)c1cnc(SCC(=O)OC)nc1N | > 40.7
COc1ccc(NC2SC(=O)N(C)C2=O)cc1 (stereo not given) | 37.6 (≈ 149 µM)
CN1CCN(C(=O)CC2(CC(=O)O)CCCC2)CC1.Cl | > 45.7
C/C(=N/OC(=O)c1cccc(C(F)(F)F)c1)c1cnccn1 | 3.5 (≈ 11.3 µM)
Cc1ccc(SCC(=O)NCCc2ccc(F)cc2)cc1 | 13.6 (≈ 44.8 µM)
CC(C)NC(=O)/C=C/C(=O)O | 22.3 (≈ 142 µM)
N#Cc1c(-c2ccccc2)cc(-c2ccc(O)cc2)nc1N | < 0.2
Cn1ncc2c(NCc3ccccc3)nc(NCCCO)nc21 | > 46.9
OCCN1CCN(CC#CCC(c2ccccc2)c2ccccc2)CC1 | > 52.3
Cc1ccccc1-n1c(-c2ccoc2)nc2ccccc2c1=O | > 45.3
CCOc1cc(C=O)ccc1OCCn1c([N+](=O)[O-])cnc1C | 18.1 (≈ 56.7 µM)
O=C(COC(=O)c1cc(S(=O)(=O)N2CCOCC2)ccc1F)NC1CC1 | 55.1 (≈ 143 µM)
CCCCOc1ccc(CSCCN)cc1Cl.Cl | > 46.5
COc1ccccc1CNC(=O)c1cc(C(C)=O)c[nH]1 | 25.1 (≈ 92.2 µM)
COc1ccc(C(=O)c2cnc[nH]2)cc1OC | 33 (≈ 142 µM)

Structure (SMILES) | solubility kinetic [µg/mL]
O=C(O)CC(c1ccc(Cl)cc1)N1Cc2ccccc2C1=O (stereo not given) | > 47.4
COc1cccc(NCc2cc(=O)oc3cc(C)c(C(C)C)cc23)c1 | 2.8 (≈ 8.3 µM)
Clc1ccc(-c2nc3ccccc3[nH]2)cn1 | 31.8 (≈ 138 µM)
Cc1snc(SCc2ccc(Cl)cc2)c1C#N | < 0.3
Cc1cccc(NC(=O)CCS(=O)(=O)c2ccc(Cl)cc2)c1 | 5.5 (≈ 16.3 µM)
CC(O)c1ccc(OCCN(C)c2ccccn2)cc1 (stereo not given) | > 40.9
O=C(O)CCC(=NNC(=O)c1cccc(S(=O)(=O)N2CCCCC2)c1)c1ccccc1 | > 66.5
O=C(Nc1ccccc1C(F)(F)F)N1CCCC1c1cccnc1 (stereo not given) | > 50.3
Cc1ccc2c(c1)N(CC(=O)N1CCOCC1)C(=O)C(C)O2 (stereo not given) | 39.6 (≈ 130 µM)
Cn1c(=O)c2c(ncn2CCC(=O)N/N=C/c2ccncc2)n(C)c1=O | > 53.3
c1ccc(CCCc2nc(-c3cccnc3)no2)cc1 | 30.5 (≈ 115 µM)
Cn1c(NC(=O)c2ccc(F)cc2)nc2ccccc21 | 4.8 (≈ 17.8 µM)
CC1(C)Cc2cccc(C(=O)Nc3ccc(F)cc3F)c2O1 | 0.7 (≈ 2.31 µM)
CC(C)N1CCC(=NNC(=O)c2cccs2)CC1 | > 39.8
CSCCC(=O)N1CCN(CC(=O)N2CCCC2)CC1 | > 44.9
COc1cc(CNc2nc3ccccc3s2)cc(OC)c1OC | 48.4 (≈ 146 µM)
O=c1[nH]c(O)c(/C=C2\C=Nc3ccc(Br)cc32)[nH]1 | 3.3 (≈ 10.8 µM)
Cc1ccc2oc(=O)n(CC(=O)N3CCOCC3)c2c1 | > 41.4
Cc1ccccc1-c1nc2sc(C)c(C)c2c(=O)o1 | < 0.6
COc1ccccc1CN1CCCCCC1.O=C(O)C(=O)O | 40.8

Structure (SMILES) | solubility kinetic [µg/mL]
Cc1cnc(C(=O)OCC(=O)c2ccc(F)c(F)c2)cn1 | > 43.8
COc1ccc(NC(=O)c2cccnn2)cc1 | > 34.4
Cc1sc2ncnc(SCC(=O)NC(C)C(C)C)c2c1C (stereo not given) | 4.6 (≈ 14.2 µM)
O=C(NCc1ccc2c(c1)OCO2)c1sccc1Br | 48.4 (≈ 142 µM)
Cc1ccccc1CN(C)CC(=O)Nc1c(C)cccc1C(C)C | 12.1 (≈ 37.3 µM)
Cn1c(=O)c2c(nc3n2CC(COc2ccccc2)O3)n(C)c1=O (stereo not given) | > 49.2
CO/N=C(/CN1CCCCC1)c1ccc(Cl)cc1 | 8.9 (≈ 33.4 µM)
Cc1cccc(N(Cc2ccccc2)C(=O)CCl)c1 | > 41.1
Cn1c(N)c(C(=O)COC(=O)c2cc3ccccc3cc2O)c(=O)n(C)c1=O | 3.6 (≈ 9.39 µM)
COc1cc(C(=O)Cc2nc3ccccc3n2C)cc(OC)c1OC | > 51.1
CC(C(=O)Nc1cccc([N+](=O)[O-])c1)N1C(=O)NC2(CCCC2)C1=O (stereo not given) | > 52
CCCn1c(=O)c(C(=O)Nc2ncccc2O)c(O)c2ccccc21 | 4.1 (≈ 12.1 µM)
Cc1csc(NC(=O)CCCC(=O)c2ccccc2)n1 | > 43.3
COc1ccc(C2=NOC(C(=O)Nc3ccc4c(c3)OCO4)C2)cc1 (stereo not given) | 1.6 (≈ 4.7 µM)
N#Cc1cc([N+](=O)[O-])ccc1NC(=O)COC(=O)CN1C(=O)C2CCCCC2C1=O (stereo not given) | > 62.2
Cc1nc2cc(N)ccc2n1C1CCCCC1.Cl | > 45.3
CC(=O)c1ccc(NC(=S)N2CCC(Cc3ccccc3)CC2)cc1 | 2.8 (≈ 7.94 µM)
N#CCN1CCN(CC(=O)c2ccc(Br)cc2)CC1 | 47.3 (≈ 147 µM)
O=C(COC(=O)c1ccccn1)NC(=O)c1ccccc1 | 35 (≈ 123 µM)
Cc1ccc(C(=O)NCc2ccco2)o1 | > 30.8
